# From patent US9120808B2 (NABRIVA THERAPEUTICS AG, priority 2009, dated 2015)
# Where two headings read alike, the source gives them in different places.
# How the values were obtained:
# [1] = target: TEM-1 β-lactamase (Escherichia coli, UniProt P62593); test: Cell-free β-lactamase inhibition study (nitrocefin hydrolysis); format: biochemical; settings: 10 min pre-incubation at 37° C., nitrocefin substrate
# Procedure: (§1) Cell-Free-β-Lactamase Inhibition Study
# (§2) Assays are performed with β-lactamases expressed in the pET system (Novagen, San Diego, Calif.) without signal peptides. They contain an N-terminal hexa-Histidine tag that is used for purification on Ni-NTA (Qiagen, Hilden, Germany). The compounds are prepared as 50 mM stocks in DMSO and diluted into buffer P1 (50 mM phosphate, pH 7) to a final concentration of 10% DMSO. All further dilutions are done in P2 (P1 with 10% DMSO). Enzyme and compound dilutions are pre-incubated for 10 min at 37° C. and the reaction is started with the addition of pre-warmed (37° C.) nitrocefin at a final concentration of […]. […] The initial velocity is determined and IC50 values are calculated using non-linear regression and sigmoidal dose response analysis with the PRISM 4.0 software (Graphpad Software Inc., San Diego, Calif.).
# [2] = Pharmacokinetics in mice; format: in vivo; settings: for AUC / Cmax: mouse, plasma
# Procedure: The values of the PK parameters were calculated by standard noncompartmental analysis, using Kinetica 4.2 (InnaPhase). Plasma concentration values below the limit of quantification were taken as 0. The maximum plasma concentration (Cmax) and the time to reach Cmax were determined from observed data.
# [3] = test system: K. pneumoniae ATCC 700603; test: In-vitro synergy test, MIC by broth/agar dilution; format: cell-based
# Procedure: (§3) Stock solutions of the test compounds and control antibiotics are prepared in distilled water according to the NCCLS guidelines (NCCLS (National Commitee for Clinical Laboratory Standards). 12(3). 2000. M7-A4). […] All drug weights are corrected for salt forms and refer to the pure drug substance.
# (§4) All tested strains and clinical isolates are either purchased from the American Type Culture Collection (ATCC), kindly supplied by A. Georgopoulos (Vienna General Hospital, Vienna, Austria), and I. Chopra (Leeds, UK), collected from the SENTRY study (F. J. Schmitz, Minden, Germany) or from the Sandoz culture collection.
# (§5) All strain identities are confirmed by BBL Crystal™ Identification Systems (Beckton Dickinson, Cockeysville, Md., USA). Stock cultures are prepared from broth cultures grown at 35° C. for 18-22 h without agitation and subsequent addition of 5% DMSO (v/v, final concentration) as cryoprotectant and stored frozen in liquid nitrogen.
# (§6) Bacterial susceptibility, expressed as MIC, is determined by microbroth dilution technique and agar dilution technique as recommended by the approved standard reference recommendations of the NCCLS.
# (§7) The inoculum is prepared by the direct colony suspension method as described by NCCLS. For this purpose the bacteria are grown on blood agar plates at 35° C. for 24 h. Subsequently 3-5 single colonies are suspended in 5 ml liquid medium. The bacteria are then incubated for 5 h to reach the logarithmic growth phase and subsequently diluted with medium or NaCl (0.86%) to reach a final living cell count equivalent to 10^8 CFU/ml. Then the bacterial suspension is diluted 1:10 and 1 μl (10^4 CFU; final inoculoum 10^5 CFU/ml) is transferred to the test medium containing the antibacterial substances by a multipoint inoculator (Dynatech, Chantilly, Va., USA). The plates are then incubated at 35° C. for 24 h. The MIC is determined optically and defined as the minimum inhibitory concentration [μg/ml] of antibiotic at which no visible bacterial growth occurs.
# [4] = test system: E. cloacae 83989; test: In-vitro synergy test, MIC by broth/agar dilution; format: cell-based
# Procedure: as §3, §4, §5, §6, §7
# [5] = test system: C. freundii 7023771; test: In-vitro synergy test, MIC by broth/agar dilution; format: cell-based
# Procedure: as §3, §4, §5, §6, §7
# [6] = test system: TEM-1 producing E. coli B269 (clinical isolate); format: in vivo; settings: s.c.; 0.5 mg/kg cefepime (0 and 3 h) + 20 mg/kg Example 49 (0, 1.5, 3, 4.5 h after infection)
# Procedure: A sepsis model in female NMRI mice was employed using TEM-1 producing E. coli B269 (clinical isolate) as the infecting bacterial strain. In general, the final inoculum given in 0.3 ml per mouse intraperitoneally represented a 100% lethal concentration for systemic infections within 48 hours.
# The subcutaneous treatment schedule for the antibiotic at various doses was simultaneous and 3 hours after infection.
# [7] = target: SHV-1 β-lactamase (Klebsiella pneumoniae, UniProt P0AD64); test: Cell-free β-lactamase inhibition study (nitrocefin hydrolysis); format: biochemical; settings: 10 min pre-incubation at 37° C., nitrocefin substrate
# Sequence of SHV-1 β-lactamase (P0AD64 whole entry, looked up): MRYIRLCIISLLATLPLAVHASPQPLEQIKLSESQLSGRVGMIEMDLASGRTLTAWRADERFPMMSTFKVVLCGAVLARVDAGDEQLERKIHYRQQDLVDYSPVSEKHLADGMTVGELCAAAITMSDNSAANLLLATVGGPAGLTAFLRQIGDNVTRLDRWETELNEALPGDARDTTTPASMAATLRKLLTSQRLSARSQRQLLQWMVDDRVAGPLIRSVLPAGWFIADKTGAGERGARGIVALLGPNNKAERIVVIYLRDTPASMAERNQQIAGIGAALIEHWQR
# Procedure: as §1, §2
# [8] = MIC of cefepime with 17 μM Example 49
# [9] = MIC of ceftazidime with 68 μM Example 49
# Sequence of TEM-1 β-lactamase (P62593 whole entry, looked up): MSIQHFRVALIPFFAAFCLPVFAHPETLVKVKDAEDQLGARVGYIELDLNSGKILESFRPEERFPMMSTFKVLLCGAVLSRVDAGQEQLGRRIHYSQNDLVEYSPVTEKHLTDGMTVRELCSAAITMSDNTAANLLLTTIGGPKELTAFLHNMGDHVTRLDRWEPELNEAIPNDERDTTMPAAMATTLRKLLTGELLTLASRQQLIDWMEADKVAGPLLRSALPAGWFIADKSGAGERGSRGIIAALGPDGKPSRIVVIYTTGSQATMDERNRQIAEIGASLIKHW
Structure (SMILES),IC50 [1],"IC50 ([7]; SHV-1, read-out: IC50)",also measured
"CC1CC(=C2O[C@@H]3CC(=O)N3C2C(=O)O)C(=O)O1 (single isomer, unassigned) [Example 49]",1.8 nM,,"AUC ([2]; oral 25 mg/kg): 1090 ng·h/mL; Cmax ([2]; oral 25 mg/kg (cremophor EL/ethanol/glucose in saline), read-out: peak plasma concentration (Cmax)): 2220 ng/mL; AUC ([2]; sc, subcutaneous 10 mg/kg): 2090 ng·h/mL; Cmax ([2]; sc, subcutaneous 10 mg/kg (0.05 M NaPO4 buffer, pH 7.2), read-out: Cmax): 5600 ng/mL; Thalf ([2]; oral 25 mg/kg): 18.90 min; time to reach Cmax ([2]; oral 25 mg/kg): 15 min; Thalf ([2]; subcutaneous 10 mg/kg): 12.27 min; time to reach Cmax ([2]; subcutaneous 10 mg/kg): 5 min; Amoxicillin MIC, +68 μM Example 49 ([3]; MIC of amoxicillin with 68 μM Example 49): 3.2 µg/mL; Cefepime MIC, +17 μM Example 49 [3, 8]: 0.2 µg/mL; Ceftazidime MIC, +68 μM Example 49 [3, 9]: 0.2 µg/mL; Cefepime MIC, +17 μM Example 49 [4, 8]: 0.8 µg/mL; Ceftazidime MIC, +68 μM Example 49 [4, 9]: 12.8 µg/mL; Cefepime MIC, +17 μM Example 49 [5, 8]: 0.4 µg/mL; Ceftazidime MIC, +68 μM Example 49 [5, 9]: 3.2 µg/mL; survival, combination of cefepime and Example 49 [6]: survival of all animals"
"O=CC=C1O[C@@H]2CC(=O)N2C1(C/C=C/c1ccccc1)C(=O)OCc1ccccc1 (stereo partly drawn) [Example 5, (5R)-7-oxo-3-[2-oxo-ethylidene]-2-(3-phenyl-allyl)-4-oxa-1-aza-bicyclo[3.2.0]heptane-2-carboxylic acid benzyl ester]",4920 nM,7140 nM,
"O=C(O)C=C1O[C@@H]2CC(=O)N2C1(C/C=C/c1ccccc1)C(=O)OCc1ccccc1 (single isomer, unassigned) [Example 27]",426 nM,624 nM,
"O=C1OC(CI)CC1=C1O[C@@H]2CC(=O)N2C1C(=O)OCc1ccccc1 (single isomer, unassigned) [Example 41]",0.2 nM,0.4 nM,
"O=CC=C1O[C@@H]2CC(=O)N2C1(CC=CCO)C(=O)OCc1ccccc1 (single isomer, unassigned) [Example 9]",828 nM,1040 nM,
"CC1C/C(=C2\O[C@@H]3CC(=O)N3C2C(=O)OCc2ccccc2)C(=O)O1 (single isomer, unassigned) [Example 45]",1.7 nM,,"IC50 ([7]; IC50, SHV-1): 3.4 nM"
"CC(C)(O/N=C(\C(=O)N[C@@H]1C(=O)N2C(C(=O)[O-])=C(C[n+]3ccccc3)CS[C@H]12)c1csc(N)n1)C(=O)O [Ceftazidime, reference compound]",,,"Ceftazidime MIC, alone ([3]; antibiotic alone): >25.6 µg/mL; Ceftazidime MIC, alone ([4]; antibiotic alone): >25.6 µg/mL; Ceftazidime MIC, alone ([5]; antibiotic alone): >25.6 µg/mL"
"CC(C)(C)C(=O)OCOC(=O)C1C(=C(C=O)C/C=C/c2ccccc2)O[C@@H]2CC(=O)N12 (stereo partly drawn) [Example 18, (5R)-3-[1-Formyl-4-phenyl-but-3-enylidene]-7-oxo-4-oxa-1-aza-bicyclo[3.2.0]heptane-2-carboxylic acid 2,2-dimethyl-propionyloxymethyl ester]",27.1 nM,13.9 nM,
"CC1C/C(=C2\O[C@@H]3CC(=O)N3C2C(=O)OCc2ccccc2)C(=O)O1 (single isomer, unassigned) [Example 46]",0.4 nM,0.5 nM,
"CC(C)(C)C(=O)OCOC(=O)C1C(=C(C/C=C/c2ccccc2)C(=O)O)O[C@@H]2CC(=O)N12 (stereo partly drawn) [Example 37, (5R)-3-(1-Carboxy-4-phenyl-but-3-enylidene)-7-oxo-4-oxa-1-aza-bicyclo[3.2.0]heptane-2-carboxylic acid 2,2-dimethyl-propionyloxymethyl ester]",44.2 nM,141 nM,
"COC(=O)C1C(=C(CCCc2ccccc2)C(=O)O)O[C@@H]2CC(=O)N12 (stereo partly drawn) [Example 53, (5R)-3-(1-Carboxy-4-phenyl-butylidene)-7-oxo-4-oxa-1-aza-bicyclo[3.2.0]heptane-2-carboxylic acid methyl ester]",72.8 nM,219 nM,
"COC(=O)C1(C/C=C/c2ccccc2)C(=CC=O)O[C@@H]2CC(=O)N21 (single isomer, unassigned) [Example 14]",19600 nM,85100 nM,
"CO/N=C(\C(=O)N[C@@H]1C(=O)N2C(C(=O)[O-])=C(C[N+]3(C)CCCC3)CS[C@H]12)c1csc(N)n1 [Cefepime, reference compound]",,,"Cefepime MIC, alone ([3]; antibiotic alone): 0.8 µg/mL; Cefepime MIC, alone ([5]; antibiotic alone): 0.8 µg/mL"
"O=C1OC(CI)CC1=C1O[C@@H]2CC(=O)N2C1C(=O)OCc1ccccc1 (single isomer, unassigned) [Example 42]",1.7 nM,0.8 nM,
"CC1(C)S[C@@H]2[C@H](NC(=O)[C@H](N)c3ccc(O)cc3)C(=O)N2[C@H]1C(=O)O [Amoxicillin, reference compound]",,,"Amoxicillin MIC, alone ([3]; antibiotic alone): >25.6 µg/mL"
"COC(=O)C1(C/C=C/c2ccccc2)C(=CC(=O)O)O[C@@H]2CC(=O)N21 (single isomer, unassigned) [Example 36]",408 nM,642 nM,
"COC(=O)C1(C/C=C/c2ccccc2)C(=CC(=O)O)O[C@@H]2CC(=O)N21 (single isomer, unassigned) [Example 35]",1560 nM,2310 nM,
"C=CCC1(C(=O)OC)C(=CC=O)O[C@@H]2CC(=O)N21 (stereo partly drawn) [Example 17, (5R)-2-Allyl-7-oxo-3-[2-oxo-ethylidene]-4-oxa-1-aza-bicyclo[3.2.0]heptane-2-carboxylic acid methyl ester]",13300 nM,21300 nM,
"C=CC/C(CO)=C1/O[C@@H]2CC(=O)N2C1C(=O)OCc1ccccc1 (stereo partly drawn) [Example 38a, (5R)-3-[1-Hydroxymethyl-but-3-en-(Z)-ylidene]-7-oxo-4-oxa-1-aza-bicyclo[3.2.0]heptane-2-carboxylic acid benzyl ester]",1950 nM,1710 nM,
"C=CCC(C=O)=C1O[C@@H]2CC(=O)N2C1C(=O)OC (stereo partly drawn) [Example 16, (5R)-3-[1-Formyl-but-3-enylidene]-7-oxo-4-oxa-1-aza-bicyclo[3.2.0]heptane-2-carboxylic acid methyl ester]",65.2 nM,80.5 nM,
"COC(=O)C1C(=C(C/C=C/c2ccccc2)C(=O)O)O[C@@H]2CC(=O)N12 (stereo partly drawn) [Example 34, (5R)-3-(1-Carboxy-4-phenyl-but-3-enylidene)-7-oxo-4-oxa-1-aza-bicyclo[3.2.0]heptane-2-carboxylic acid methyl ester]",21.7 nM,50.3 nM,
"O=CC(CC=CCO)=C1O[C@@H]2CC(=O)N2C1C(=O)OCc1ccccc1 (stereo partly drawn) [Example 7, (5R)-3-[1-Formyl-5-hydroxy-pent-3-enylidene]-7-oxo-4-oxa-1-aza-bicyclo[3.2.0]heptane-2-carboxylic acid benzyl ester]",78.4 nM,,"IC50 ([7]; IC50, SHV-1): 217 nM"
"C=CC/C(CO)=C1\O[C@@H]2CC(=O)N2C1C(=O)OCc1ccccc1 (stereo partly drawn) [Example 38, (5R)-3-[1-Hydroxymethyl-but-3-en-(E)-ylidene]-7-oxo-4-oxa-1-aza-bicyclo[3.2.0]heptane-2-carboxylic acid benzyl ester]",8020 nM,6810 nM,
